Publication PMC9235172, “SHTXTHHly, an extracellular secretion platform for the preparation of bioactive peptides and proteins in Escherichia coli” (Microbial Cell Factories, 2022)
Residues, ends and D or L forms follow the SMILES beside them.

Tests used:
[1] = system: E. coli 25922; conditions: E. coli 25922 in MHB, 37 °C, 18 h, OD600, triplicate
Protocol: Fig. 4 Bioactivities determination of the produced AMPs. Different concentrations (0–4000 nM) of cCeA and rCeA (A), or cLL37 and rLL37 (B), were incubated with E. coli 25,922 at 37 °C for 18 h, then the OD600 values were detected. Different concentrations (0–64 μM) of cA12 and rA12 (C) were incubated with U87 MG cells for 8 h, and the number of live cells was measured with the CCK-8 reagent.
Overnight cultures of E. coli 25922 were diluted with fresh Mueller–Hinton Broth (MHB) to an optical density at 600 nm (OD600) at 0.1 and further diluted at 1:100 with fresh MHB. Then 100 μL bacterial suspension was added in triplicate to the 96-well plate. The commercial (APeptides, China) and bio-produced Cecropin A or LL37 were serially diluted with MHB medium and added into the 96-well plate to final concentrations of 2 to 2000 nM. The plate was incubated at 37 °C for 18 h, and the OD600 values were measured with Synergy LX multi-mode reader (BioTek, USA). Broth with bacterial inoculum without AMP and broth alone were used as control groups in which the relative biomass was set as 1 and 0, respectively.

[2] = system: Mo7e cells; assay: Mo7e cell proliferation, CCK-8; assay type: cell-based; conditions: 1 pM-100 nM, 4 days, read-out: EC50, promotion of Mo7e cells' proliferation
Protocol: Fig. 5 Bioactivities determination of RGDS, IL-15, and ADH in the SHTXTHHly fusion form. U87 MG cells were incubated with SHTRGDSTHHly/SHTRGESTHHly, mouse anti-S tag antibody, and the second antibody in sequence, then the cell staining was measured by FACS (A). U87 MG cells were incubated with SHTRGDSTHHly/SHTRGESTHHly and transferred into a fibronectin-coated plate. At different times, the attached cells were subjected to the CCK-8 reagent for quantification (B). In other experiments, cells were stained with DiO dye (green) and observed with a fluorescence microscope (C). Mo7e cells were incubated with different concentrations (1 pM-100 nM) of IL-15 and SHTIL15THHly for 4 days, and the cell numbers were measured with a CCK-8 reagent (D). The activities of ADH and SHTADHTHHly were compared using Ethyl Acetoacetate as the substrate and NADH as the co-factor (E). The activity was measured at 340 nm to monitor the decrease in the absorbance of NADH quantitatively. S: Slope. […] PBS is a blank control.
Mo7e cells were plated in a 96-well plate with a cell number of twenty thousand per well. After 4 h incubation, serially diluted IL-15 and SHTIL15THHly were added. After 4 days of incubation, the proliferation of cells was measured using the CCK-8 reagent.

Compound	minimum inhibitory concentration (MIC) [1] [µM]	EC50 [2] [nM]
CC[C@H](C)[C@H](NC(=O)CNC(=O)[C@H](CC(=O)O)NC(=O)[C@H](CCCNC(=N)N)NC(=O)[C@@H](NC(=O)[C@H](CC(N)=O)NC(=O)[C@H](CCC(N)=O)NC(=O)CNC(=O)[C@@H](NC(=O)[C@H](CCCCN)NC(=O)[C@H](CCC(=O)O)NC(=O)[C@@H](NC(=O)[C@H](CCCCN)NC(=O)[C@H](CCCCN)NC(=O)[C@H](Cc1ccccc1)NC(=O)[C@H](CC(C)C)NC(=O)[C@H](CCCCN)NC(=O)[C@H](Cc1c[nH]c2ccccc12)NC(=O)[C@@H](N)CCCCN)[C@@H](C)CC)C(C)C)[C@@H](C)CC)C(=O)N[C@H](C(=O)N[C@@H](CCCCN)C(=O)N[C@@H](C)C(=O)NCC(=O)N1CCC[C@H]1C(=O)N[C@@H](C)C(=O)N[C@H](C(=O)N[C@@H](C)C(=O)N[C@H](C(=O)N[C@H](C(=O)NCC(=O)N[C@@H](CCC(N)=O)C(=O)N[C@@H](C)C(=O)N[C@H](C(=O)N[C@@H](CCC(N)=O)C(=O)N[C@H](C(=O)N[C@@H](C)C(=O)N[C@@H](CCCCN)C(=O)O)[C@@H](C)CC)[C@@H](C)O)C(C)C)C(C)C)C(C)C)[C@@H](C)CC [cCeA, Cecropin A] (H-KWKLFKKIEKVGQNIRDGIIKAGPAVAVVGQATQIAK-OH)	0.85	
IL-15: control monomeric IL-15		0.294
CC[C@H](C)[C@H](NC(=O)[C@H](CCCCN)NC(=O)[C@H](CCC(=O)O)NC(=O)[C@H](CCCCN)NC(=O)[C@H](CO)NC(=O)[C@H](CCCCN)NC(=O)[C@H](CCCNC(=N)N)NC(=O)[C@H](Cc1ccccc1)NC(=O)[C@H](Cc1ccccc1)NC(=O)[C@H](CC(=O)O)NC(=O)CNC(=O)[C@H](CC(C)C)NC(=O)[C@@H](N)CC(C)C)C(=O)NCC(=O)N[C@@H](CCCCN)C(=O)N[C@@H](CCC(=O)O)C(=O)N[C@@H](Cc1ccccc1)C(=O)N[C@@H](CCCCN)C(=O)N[C@@H](CCCNC(=N)N)C(=O)N[C@H](C(=O)N[C@H](C(=O)N[C@@H](CCC(N)=O)C(=O)N[C@@H](CCCNC(=N)N)C(=O)N[C@H](C(=O)N[C@@H](CCCCN)C(=O)N[C@@H](CC(=O)O)C(=O)N[C@@H](Cc1ccccc1)C(=O)N[C@@H](CC(C)C)C(=O)N[C@@H](CCCNC(=N)N)C(=O)N[C@@H](CC(N)=O)C(=O)N[C@@H](CC(C)C)C(=O)N[C@H](C(=O)N1CCC[C@H]1C(=O)N[C@@H](CCCNC(=N)N)C(=O)N[C@H](C(=O)N[C@@H](CCC(=O)O)C(=O)N[C@@H](CO)C(=O)O)[C@@H](C)O)C(C)C)[C@@H](C)CC)C(C)C)[C@@H](C)CC [cL3, LL37]	1.87	
